Patent US11008335B2, “Positive allosteric modulators of the muscarinic acetylcholine receptor M4” (Vanderbilt University, priority 2016, dated 2021)
Structures can show the parent of a compound that is named as a salt.

Biological target: T1, Human M4 (Homo sapiens, UniProt P08173)
T1 sequence (P08173 1-479): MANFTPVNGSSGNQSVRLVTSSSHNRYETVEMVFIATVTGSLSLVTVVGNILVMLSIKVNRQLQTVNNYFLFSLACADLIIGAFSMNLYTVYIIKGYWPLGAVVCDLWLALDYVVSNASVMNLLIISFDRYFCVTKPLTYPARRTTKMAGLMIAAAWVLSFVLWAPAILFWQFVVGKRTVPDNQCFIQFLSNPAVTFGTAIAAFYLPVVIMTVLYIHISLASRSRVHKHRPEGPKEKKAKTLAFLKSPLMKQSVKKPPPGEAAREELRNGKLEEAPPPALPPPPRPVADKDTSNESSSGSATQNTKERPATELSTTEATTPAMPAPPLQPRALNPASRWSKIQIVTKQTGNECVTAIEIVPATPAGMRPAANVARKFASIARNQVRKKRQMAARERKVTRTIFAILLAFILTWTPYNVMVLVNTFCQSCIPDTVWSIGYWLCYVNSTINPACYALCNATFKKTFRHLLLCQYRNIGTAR
Experiment: mAChR M4 cell-based functional assay (calcium flux, potentiation of EC20 acetylcholine response)
Parameters: Emax: dose or concentration left out as unconfirmed
Conditions: for Emax: CHO-K1

Row | Structure (SMILES) | EC50 | Emax
1 | Cc1nc2sc3c(N4CC5CC5C4)nncc3c2c(C)c1Cl (stereo not drawn) [Compound 3, 8-(3-azabicyclo[3.1.0]hexan-3-yl)-3-chloro-2,4-dimethylpyrido[3′,2′:4,5]thieno[2,3-d]pyridazine] | 480 nM | 80.4%
2 | Cc1nc2sc3c(NCc4ccc(OC(F)F)cc4)nncc3c2c(C)c1Cl [Compound 4, 3-chloro-N-(4-(difluoromethoxy)benzyl)-2,4-dimethylpyrido[3′,2′:4,5]thieno[2,3-d]pyridazin-8-amine] | 540 nM | 41%
3 | COc1ccc(CNc2nncc3c2sc2nc(C)c(Cl)c(C)c23)cc1F [Compound 5, 3-chloro-N-(3-fluoro-4-methoxybenzyl)-2,4-dimethylpyrido[3′,2′:4,5]thieno[2,3-d]pyridazin-8-amine] | 1310 nM | 69.4%
4 | COCCCNc1nncc2c1sc1nc(C)c(Cl)c(C)c12 [Compound 7, 3-chloro-N-(3-methoxypropyl)-2,4-dimethylpyrido[3′,2′:4,5]thieno[2,3-d]pyridazin-8-amine hydrochloride] | 340 nM | 70%
5 | Cc1nc2sc3c(NC4CC4)nncc3c2c(C)c1Cl [Compound 11, 3-chloro-N-cyclopropyl-2,4-dimethylpyrido[3′,2′:4,5]thieno[2,3-d]pyridazin-8-amine hydrochloride] | 81 nM | 100%
6 | Cc1nnc2sc3c(NCc4ccc(C(C)(C)O)cc4)nncc3c2c1C [Compound 12, 2-(4-(((3,4-dimethylthieno[2,3-c:4,5-d′]dipyridazin-8-yl)amino)methyl)phenyl)propan-2-ol] | – | 99.4%
7 | [2H]C([2H])(Nc1nncc2c1sc1nnc(C)c(C)c12)c1ccc(C(C)(C)O)cc1 [Compound 13, 2-(4-(((3,4-dimethylthieno[2,3-c:4,5-d′]dipyridazin-8-yl)amino)methyl-d2)phenyl)propan-2-ol] | 727 nM | 91.9%
8 | [2H]C([2H])([2H])C(O)(c1ccc(CNc2nncc3c2sc2nnc(C)c(C)c23)cc1)C([2H])([2H])[2H] [Compound 14, 2-(4-(((3,4-dimethylthieno[2,3-c:4,5-d′]dipyridazin-8-yl)amino)methyl)phenyl)propan-1,1,1,3,3,3-d6-2-ol] | 746 nM | 89.4%
9 | Cc1nnc2sc3c(N4CCCC4)nncc3c2c1C [Compound 15, 3,4-dimethyl-8-(pyrrolidin-1-yl)thieno[2,3-c:4,5-d′]dipyridazine] | – | 95.8%
10 | Cc1nnc2sc3c(NCc4ccc(C(C)(C)CO)cc4F)nncc3c2c1C [Compound 16, 2-(4-(((3,4-dimethylthieno[2,3-c:4,5-d′]dipyridazin-8-yl)amino)methyl)-3-fluorophenyl)-2-methylpropan-1-ol] | 779 nM | 77.4%
11 | COc1ccc(CNc2nncc3c2sc2nnc(C)c(C)c23)cc1F [Compound 17, N-(3-fluoro-4-methoxybenzyl)-3,4-dimethylthieno[2,3-c:4,5-d′]dipyridazin-8-amine] | – | 86.7%
12 | Cc1nnc2sc3c(NCc4ccc(-n5cccn5)cc4)nncc3c2c1C [Compound 18, N-(4-(1H-pyrazol-1-yl)benzyl)-3,4-dimethylthieno[2,3-c:4,5-d′]dipyridazin-8-amine] | 560 nM | 72.7%
13 | Cc1nnc2sc3c(N4CC(Oc5cccnc5)C4)nncc3c2c1C [Compound 19, 3,4-dimethyl-8-(3-(pyridin-3-yloxy)azetidin-1-yl)thieno[2,3-c:4,5-d′]dipyridazine] | 2110 nM | 51.3%
14 | Cc1nnc2sc3c(N4CC[C@H](Oc5cccnc5)C4)nncc3c2c1C [Compound 20, (S)-3,4-dimethyl-8-(3-(pyridin-3-yloxy)pyrrolidin-1-yl)thieno[2,3-c:4,5-d′]pyridazine] | 214 nM | 70.3%
15 | Cc1nc2sc3c(N4CCCC4)nnc(C)c3c2c(C)c1Cl [Compound 21, 3-Chloro-2,4,5-trimethyl-8-(pyrrolidin-1-yl)pyrido[3′,2′:4,5]thieno[2,3-d]pyridazine] | 1630 nM | 50.4%
